In patent US12084462B2, “Spiro bicyclic inhibitors of menin-MLL interaction” (Janssen Pharmaceutica NV, priority 2016, dated 2024) one finds IC50 data, which are given here for 56 molecules.

The test system of this assay is MV-4-11. Put plainly: Proliferation assay (spheroid assay) MV-4-11. The format is cell-based, human. The note with it: Homo sapiens, MV4-11, MV-4-11; averaged values; read-out: Spheroid assay MV-4-11 (IC50 (μM)). On the procedure:
The anti-proliferative effect of menin/MLL protein/protein interaction inhibitor test compounds was assessed in human leukemia cell lines. The cell lines MV-4-11 and MOLM14 harbor MLL translocations and express the MLL fusion proteins MLL-AF4 and MLL-AF9, respectively, as well as the wildtype protein from the second allele. […] K562 and KG1 were used as a control cell lines containing two MLL wildtype alleles in order to exclude compounds that display general cytotoxic effects.
MV-4-11 and MOLM14 were cultured in RPMI-1640 (Sigma Aldrich) supplemented with 10% fetal bovine serum (HyClone), 2 mM L-glutamine (Sigma Aldrich) and 50 μg/ml gentamycin (Gibco). K562 were propagated in RPMI-1640 (Sigma Aldrich) supplemented with 20% fetal bovine serum (HyClone), 2 mM L-glutamine (Sigma Aldrich) and 50 μg/ml gentamycin (Gibco). KG1 were cultured in Iscove's MDM (Gibco) supplemented with 20% fetal bovine serum (HyClone), 2 mM L-glutamine (Sigma Aldrich) and 50 μg/ml gentamycin (Gibco).
In order to assess the anti-proliferative effects, 1,500 MV-4-11, 300 MOLM14, 750 K562 or 1,300 KG1 cells were seeded in 200 μl media per well in 96-well round bottom, ultra-low attachment plates (Costar, catalogue number 7007). Cell seeding numbers were chosen based on growth curves to ensure linear growth throughout the experiment. Test compounds were added at different concentrations and the DMSO content was normalized to 0.3%. Cells were incubated for 8 d at 37° C. and 5% CO2. Spheroid like growth was monitored in real-time by live-cell imaging (IncuCyteZOOM, Essenbio, 4× objective) acquiring one image every four hours for 8 d. Confluence (%) as a measure of spheroid size was determined using an integrated analysis tool.
In order to determine the cumulative effect of the test compounds over time, the area under the curve (AUC) in a plot of confluence against time was calculated. Confluence at the beginning of the experiment (t=0) was used as baseline for the AUC calculation.
Absolute IC50 values were calculated according to the following procedure: % Control=(AUC sample/AUC control)*100 AUC control=mean AUC of control values (cells without compound/DMSO as vehicle control)
A non-linear curve fit was applied using the least squares (ordinary) fit method to the plot of % control versus compound concentration. Based on this, the absolute IC50 value (half maximal inhibitory concentration of the test compound causing an anti-proliferative effect of 50% relative to the vehicle control) was calculated.
For orientation: IC50 means the midpoint of a concentration-inhibition curve. As for `COCCn1cc(C(C(C)C)N2CC3(CCN(c4ncnc5sc(CC(F)(F)F)cc45)C3)C2)cn1` (centres unmarked) [Compound 71], the IC50 turned out to be 1.1 µM.

With `C[C@@H](C1CCNCC1)N1CC2(CCN(c3ncnc4sc(CC(F)(F)F)cc34)C2)C1` [Compound 146], the half-maximal inhibitory concentration (IC50) was 2.4 µM.

In the case of `CC(Cc1ccc(C#N)cc1)N1CC2(CCN(c3ncnc4sc(CC(F)(F)F)cc34)C2)C1` (centres unmarked) [Compound 314], the IC50 is 0.73 µM.

Consider `CC(C)C(C1CNC1)N1CC2(CCN(c3ncnc4sc(CC(F)(F)F)cc34)C2)C1` (centres unmarked) [Compound 222], for which the IC50 came to 0.2 µM.

For the molecule `CC(C)[C@@H](C1CCOCC1)N1CC2(CCN(c3ncnc4sc(CC(F)(F)F)cc34)C2)C1` [Compound 162], the IC50 turned out to be 3.1 µM.

Regarding `CC(Cc1cc(F)cc(F)c1)N1CC2(CCN(c3ncnc4sc(CC(F)(F)F)cc34)C2)C1` (centres unmarked) [Compound 170], the IC50 was determined as 4.3 µM.

Regarding `CC(C)[C@@H](C1CCNCC1)N1CC2(CCN(c3ncnc4sc(CC(F)(F)F)cc34)C2)C1` [Compound 169], the IC50 came to 3.5 µM.

With `FC(F)(F)Cc1cc2c(N3CCC4(CN(CC5CCNCC5)C4)C3)ncnc2s1` [Compound 311], the IC50 worked out at 2.4 µM.

`Cn1cc(CN2CC[C@]3(CCN(c4ncnc5sc(CC(F)(F)F)cc45)C3)C2)cn1` (single isomer, unassigned) [Compound 299]: the IC50 amounted to 3.18 µM.

Consider `CC(C)C[C@H](C1CCOCC1)N1CC2(CCN(c3ncnc4sc(CC(F)(F)F)cc34)C2)C1` [Compound 179], for which the IC50 was found to be 1.3 µM.

Take `CC(c1cn[nH]c1)N1CC2(CCN(c3ncnc4sc(CC(F)(F)F)cc34)C2)C1` (centres unmarked) [Compound 223]: the IC50 turned out to be 6.1 µM.

In the case of `CC[C@@H](C)[C@@H](c1cnn(C)c1)N1CC2(CCN(c3ncnc4sc(CC(F)(F)F)cc34)C2)C1` (single isomer, unassigned) [Compound 237], the 50% inhibitory concentration (IC50) turned out to be 1.2 µM.

Consider `CN1CC2(CC2)C[C@H]1C(=O)N1CC2(C1)CN(c1ncnc3sc(CC(F)(F)F)cc13)C2` [Compound 108], for which the IC50 is more than 15 µM.

`C[C@H](C1CNC1)N1CC2(CCN(c3ncnc4sc(CC(F)(F)F)cc34)C2)C1` [Compound 150]: the IC50 was 2 µM.

For `CC(C)[C@@H](c1cnn(C)c1)N1CC2(CCN(c3ncnc4sc(CC(F)(F)F)cc34)C2)C1` [Compound 203], the IC50 came to 7.2 µM.

Consider `FC(F)(F)Cc1cc2c(N3CC[C@@]4(CCN(CCc5ccccc5)C4)C3)ncnc2s1` (single isomer, unassigned) [Compound 296], for which the IC50 amounted to 4.89 µM.

For the molecule `CC(C)CC(C1CCC2(CCCC2)OC1)N1CC2(CCN(c3ncnc4sc(CC(F)(F)F)cc34)C2)C1` (single isomer, unassigned) [Compound 313], the IC50 worked out at 3.6 µM.

With `Fc1cccc(CN2CC3(CCN(c4ncnc5sc(CC(F)(F)F)cc45)C3)C2)c1` [Compound 56], the IC50 is 4.9 µM.

Regarding `Cc1ccc(CC(C)N2CC3(CCN(c4ncnc5sc(CC(F)(F)F)cc45)C3)C2)cc1` (centres unmarked) [Compound 324], the IC50 came out at 1.9 µM.

As to `CC(C)CCN1CC[C@@]2(CCN(c3ncnc4sc(CC(F)(F)F)cc34)C2)C1` (single isomer, unassigned) [Compound 293], the IC50 was 1.67 µM.

For `CC(C)C(c1cnn(C)c1)N1CC[C@]2(CCN(c3ncnc4sc(CC(F)(F)F)cc34)C2)C1` (some centres unmarked) [Compound 186], the IC50 stood at 1.3 µM.

As for `Cc1c([C@@H](C(C)C)N2CC3(CCN(c4ncnc5sc(CC(F)(F)F)cc45)C3)C2)cnn1C` [Compound 173], the IC50 stood at 3.2 µM.

As to `CC(Cc1cccc(F)c1)N1CC2(CCN(c3ncnc4sc(CC(F)(F)F)cc34)C2)C1` (centres unmarked) [Compound 183], the IC50 stood at 1.3 µM.

In the case of `Cn1cc([C@H](C2CCNCC2)N2CC3(CCN(c4ncnc5sc(CC(F)(F)F)cc45)C3)C2)cn1` [Compound 202], the IC50 is more than 15 µM.

Consider `CC(C)C[C@@H](C1CCOCC1)N1CC2(CCN(c3ncnc4sc(CC(F)(F)F)cc34)C2)C1` [Compound 180], for which the IC50 was 1.9 µM.

Turning to `COc1ccccc1CC(C)N1CC2(CCN(c3ncnc4sc(CC(F)(F)F)cc34)C2)C1` (centres unmarked) [Compound 171], the IC50 came to 3.1 µM.

`Cc1nn(C)cc1[C@@H](C(C)C)N1CC2(CCN(c3ncnc4sc(CC(F)(F)F)cc34)C2)C1` [Compound 166]: the IC50 came out at 2.4 µM.

As to `CC(C)CCN1CC[C@]2(CCN(c3ncnc4sc(CC(F)(F)F)cc34)C2)C1` (single isomer, unassigned) [Compound 294], the IC50 amounted to 1.83 µM.

On to `CC(C)C(C1CCOCC1)N1CC2(CCN(c3ncnc4sc(CC(F)(F)F)cc34)C2)C1` (centres unmarked) [Compound 156], for which the half-maximal inhibitory concentration (IC50) came to 0.79 µM.

On to `Cc1c(C(C(C)C)N2CC3(CCN(c4ncnc5sc(CC(F)(F)F)cc45)C3)C2)cnn1C` (centres unmarked) [Compound 172], for which the IC50 came to 2.9 µM.

As to `Cc1ccccc1CN1CC2(CCN(c3ncnc4sc(CC(F)(F)F)cc34)C2)C1` [Compound 45], the IC50 is 3.4 µM.

Regarding `FC(F)(F)Cc1cc2c(N3CC[C@@]4(CCN(CC5CCOCC5)C4)C3)ncnc2s1` [Compound 185], the IC50 was 1.3 µM.

Regarding `Cc1ccc(CN2CC3(CCN(c4ncnc5sc(CC(F)(F)F)cc45)C3)C2)cc1` [Compound 49], the IC50 stood at 2.1 µM.

Turning to `COc1cccc(CC(C)N2CC3(CCN(c4ncnc5sc(CC(F)(F)F)cc45)C3)C2)c1` (centres unmarked) [Compound 320], the IC50 came to 1.37 µM.

As for `CC(C)[C@H](c1cnn(C)c1)N1CC[C@]2(CCN(c3ncnc4sc(CC(F)(F)F)cc34)C2)C1` (single isomer, unassigned) [Compound 188], the IC50 came out at 1.5 µM.

As for `CC(C)C[C@@H](C1CNC1)N1CC2(CCN(c3ncnc4sc(CC(F)(F)F)cc34)C2)C1` [Compound 213], the IC50 amounted to 1.9 µM.

Regarding `NCCn1cc(CN2CC3(CCN(c4ncnc5sc(CC(F)(F)F)cc45)C3)C2)cn1` [Compound 77], the IC50 was determined as 12.1 µM.

On to `CC(Cc1ccc(O)cc1)N1CC2(CCN(c3ncnc4sc(CC(F)(F)F)cc34)C2)C1` (centres unmarked) [Compound 323], for which the IC50 is 0.75 µM.

In the case of `CC(C)CN1CCC2(C1)CN(c1ncnc3sc(CC(F)(F)F)cc13)C2` [Compound 58], the concentration for half-maximal inhibition (IC50) came to 2.7 µM.

`COc1ccc(CC(C)N2CC3(CCN(c4ncnc5sc(CC(F)(F)F)cc45)C3)C2)cc1` (centres unmarked) [Compound 321]: the IC50 was found to be 1.1 µM.

Consider `CC(Cc1ccccc1F)N1CC2(CCN(c3ncnc4sc(CC(F)(F)F)cc34)C2)C1` (centres unmarked) [Compound 322], for which the IC50 was found to be 1.7 µM.

Regarding `Fc1ccccc1CN1CC2(CCN(c3ncnc4sc(CC(F)(F)F)cc34)C2)C1` [Compound 54], the IC50 stood at 3.7 µM.

`FC(F)(F)Cc1cc2c(N3CCC4(CN(CCc5ccccc5)C4)C3)ncnc2s1` [Compound 69]: the IC50 was found to be 1.2 µM.

Regarding `CC[C@@H](C)[C@H](c1cnn(C)c1)N1CC2(CCN(c3ncnc4sc(CC(F)(F)F)cc34)C2)C1` (single isomer, unassigned) [Compound 235], the IC50 came out at 0.71 µM.

Regarding `CCC(C1CNC1)N1CC2(CCN(c3ncnc4sc(CC(F)(F)F)cc34)C2)C1` (centres unmarked) [Compound 259], the IC50 stood at 1.3 µM.

Consider `FC(F)(F)Cc1cc2c(N3CC[C@]4(CCN(CC5CCOCC5)C4)C3)ncnc2s1` [Compound 187], for which the IC50 amounted to 1.4 µM.

Take `FC(F)(F)Cc1cc2c(N3CCC4(CN(CCC5CCOCC5)C4)C3)ncnc2s1` [Compound 67]: the IC50 was found to be 4.9 µM.

Consider `Cc1ccc(CC(C2CNC2)N2CC3(CCN(c4ncnc5sc(CC(F)(F)F)cc45)C3)C2)cc1` (centres unmarked) [Compound 318], for which the IC50 came out at 1.09 µM.

For `Cc1cccc(CN2CC3(CCN(c4ncnc5sc(CC(F)(F)F)cc45)C3)C2)c1` [Compound 46], the IC50 is 4.1 µM.

`CO[C@H]1CN[C@H](C(=O)N2CC3(C2)CN(c2ncnc4sc(CC(F)(F)F)cc24)C3)C1` [Compound 111]: the IC50 came out at 9.3 µM.

As to `C[C@H](C1CCNCC1)N1CC2(CCN(c3ncnc4sc(CC(F)(F)F)cc34)C2)C1` [Compound 147], the IC50 is 8.2 µM.

Take `CC(C)C(C1CCNCC1)N1CC2(CCN(c3ncnc4sc(CC(F)(F)F)cc34)C2)C1` (centres unmarked) [Compound 148]: the IC50 turned out to be 0.33 µM.

Turning to `O=C([C@H]1CC2(CC2)CN1)N1CC2(C1)CN(c1ncnc3sc(CC(F)(F)F)cc13)C2` [Compound 109], the IC50 was determined as 8.1 µM.

`CO[C@@H]1CN[C@H](C(=O)N2CC3(C2)CN(c2ncnc4sc(CC(F)(F)F)cc24)C3)C1` [Compound 110]: the IC50 was 4 µM.

As to `Cc1nn(C)cc1C(C(C)C)N1CC2(CCN(c3ncnc4sc(CC(F)(F)F)cc34)C2)C1` (centres unmarked) [Compound 161], the IC50 amounted to 4.2 µM.

Take `Fc1ccc(CCN2CC[C@@]3(CCN(c4ncnc5sc(CC(F)(F)F)cc45)C3)C2)cc1` (single isomer, unassigned) [Compound 298]: the IC50 is 4.23 µM.
